Data as given in publication PMC9995496, “A screen for MeCP2-TBL1 interaction inhibitors using a luminescence-based assay” (Scientific Reports, 2023).
Counter-ions that a name gives are not always drawn. Like-named read-outs stand apart in the source and are kept apart here. Bridge positions count the residues as written; N and C are the ends. Square brackets hold non-standard residues; d marks the D form. Peptide text beside a SMILES is read from it. hArg = N=C(N)NCCCC[C@H](N)C(=O)O; Mpa = O=C(O)CCS

Tested on: PRKACA-PRKAR2A interaction (SmBiT-PRKACA / LgBiT-PRKAR2A), protein kinase A
Design: NanoLuc complementation counter-screen in cell extract, PRKACA with PRKAR2A, loss of luminescence, detects NanoLuc interference
Conditions: counter-screen for NanoLuc interference, 0.5 h, 20 µM, inhibitor

Inh (PKA)	Inh (PKA) (Inh (PKA))	Compound
1.207%	–	Cc1cn([C@H]2C[C@H](N=[N+]=[N-])[C@@H](CO)O2)c(=O)[nH]c1=O [UM0142451:01, Zidovudine]
-0.7793%	–	CC(C)(C)C(=O)OCOP(=O)(COCCn1cnc2c(N)ncnc21)OCOC(=O)C(C)(C)C [UM0142452:01, Adefovir Dipivoxil]
89.04%	–	Cc1cc(C#N)cc(C)c1Oc1nc(Nc2ccc(C#N)cc2)nc(N)c1Br [UM0142453:01, Etravirine (TMC125)]
0.5167%	–	Cc1cn([C@H]2C=C[C@@H](CO)O2)c(=O)[nH]c1=O [UM0142454:01, Stavudine (d4T)]
64.82%	–	CC(C)CCN1c2nc(Nc3cc(F)c(O)c(F)c3)ncc2N(C)C(=O)C1C (centres unmarked) [UM0142455:01, BI-D1870]
34.33%	–	CCc1cncnc1N1CCN(Cc2nc3ccc(C(F)(F)F)cc3[nH]2)CC1 [UM0142456:01, PF-4708671]
-0.5355%	–	CNS(=O)(=O)CCc1ccc2[nH]cc(C3CCN(C)CC3)c2c1 [UM0142462:01, Naratriptan]
4.132%	–	Nc1c(Br)cc(Br)cc1CN[C@H]1CC[C@H](O)CC1 [UM0142466:01, Ambroxol HCl]
11.36%	–	O=C1NC(=O)C(c2ccccc2)(c2ccccc2)N1 [UM0142467:01, Phenytoin]
12.65%	–	CCOC(=O)C1=C[C@]2(CC)CCCN3CCc4c(n1c1ccccc41)[C@@H]32 [UM0142468:01, Vinpocetine]
40.39%	–	COc1cc(NC(=O)c2ccc(-c3ccc(Cl)cc3)o2)cc(OC)c1 [UM0142469:01, A-803467]
0.4733%	–	CCCCCCCN(CC)CCCC(O)c1ccc(NS(C)(=O)=O)cc1 (centres unmarked) [UM0142470:01, Ibutilide Fumarate]
–	3.767%	O=C(Cc1ccc(-c2ccc(OCCN3CCOCC3)cc2)cn1)NCc1ccccc1 [UM0142472:01, KX2-391]
–	53.12%	COc1cc(Nc2ncc(F)c(Nc3ccc4c(n3)N(COP(=O)(O)O)C(=O)C(C)(C)O4)n2)cc(OC)c1OC [UM0142473:01, Fostamatinib (R788)]
26.47%	–	COc1cc(-c2cc(-c3cccc(O)c3)cnc2N)cc(OC)c1OC [UM0142474:01, K02288]
–	12.17%	Cc1cccc(-c2[nH]c(C(C)(C)C)nc2-c2ccc3c(c2)OCO3)n1 [UM0142475:01, SB505124]
19.17%	–	CC[C@@]1(O)C(=O)OCc2c1cc1n(c2=O)Cc2cc3c(CN(C)C)c(O)ccc3nc2-1 [UM0142480:01, Topotecan HCl]
0.3639%	–	CCn1c(N)c(C(=O)NC)c(=O)c2ccc(C#C[C@@](C)(O)COC)nc21 [UM0142483:01, SAR131675]

Inh (PKA)	Inh (PKA) (Inh (PKA))	Compound
23.47%	–	O=C(CSc1nc2c(c(=O)n1-c1ccccc1)SCC2)Nc1ccc(-c2ccccc2)cn1 [UM0142486:01, IWP-L6]
0.7443%	–	Cc1cc(-c2ncc(CC(=O)Nc3ccc(-c4cnccn4)cn3)cc2C)ccn1 [UM0142488:01, LGK-974]
5.384%	–	O=C(O)c1cc2cccc([N+](=O)[O-])c2[nH]1 [UM0142492:01, CRT0044876]
0.417%	–	NC(=S)N/N=C/c1ncccc1N [UM0142496:01, Triapine]
-0.9688%	–	CCCN1CCN(c2ccc(C(=O)NC3(C(=O)NCC#N)CCCCC3)cc2)CC1 [UM0142500:01, Balicatib]
–	0.8137%	CCOC(=O)[C@H](C)C[C@@H](Cc1ccc(-c2ccccc2)cc1)NC(=O)CCC(=O)O [UM0142501:01, AHU-377 hemicalcium salt]
40.51%	–	CCC(Sc1nnc2c(n1)[nH]c1ccccc12)C(=O)N1c2ccccc2Sc2ccccc21 (centres unmarked) [UM0142503:01, Inauhzin]
11.49%	–	CCCCCCCc1ccc(CCc2cccc(O)c2C(=O)O)cc1 [UM0142505:01, MG 149]
-0.9356%	–	CC(C)NCC(O)c1ccc(NS(C)(=O)=O)cc1 (centres unmarked) [UM0142510:01, Sotalol hydrochloride]
–	0.7443%	O=C(c1ccccc1)c1ccc2n1CCC2C(=O)O (centres unmarked) [UM0142511:01, Ketorolac]
0.62%	–	COCCCOc1ccnc(C[S+]([O-])c2nc3ccccc3[nH]2)c1C (centres unmarked) [UM0142515:01, Rabeprazole]
8.15%	–	C#C[C@]1(O)CC[C@H]2[C@@H]3CCC4=CC(=O)CC[C@@H]4[C@H]3C(=C)C[C@@]21CC [UM0142516:01, Etonogestrel]
3.161%	–	CC(C)C(=O)OCC(=O)[C@@]12O[C@H](C3CCCCC3)O[C@@H]1C[C@H]1[C@@H]3CCC4=CC(=O)C=C[C@]4(C)[C@H]3[C@@H](O)C[C@@]12C [UM0142517:01, Ciclesonide]
-0.7534%	–	CC(=O)O[C@H]1Cc2ccccc2N(C(N)=O)c2ccccc21 [UM0142518:01, Eslicarbazepine acetate]
-0.06094%	–	N=C(N)NCCCC[C@@H]1NC(=O)CCSSC[C@@H](C(N)=O)NC(=O)[C@@H]2CCCN2C(=O)[C@H](Cc2c[nH]c3ccccc23)NC(=O)[C@H](CC(=O)O)NC(=O)CNC1=O [UM0142520:01, Eptifibatide] ([Mpa][hArg]GDWPC-NH2; disulfide 1-7)
4.065%	–	COc1cccc(CCc2ccccc2OCC(CN(C)C)OC(=O)CCC(=O)O)c1 (centres unmarked) [UM0142521:01, Sarpogrelate hydrochloride]
–	9.074%	O=C(O)Cc1ccccc1Nc1c(Cl)cccc1Cl [UM0142522:01, Diclofenac]

The next lines start with the compound.

Compound	Inh (PKA)	Inh (PKA) (Inh (PKA))
O=C(NC(Cc1cc(=O)[nH]c2ccccc12)C(=O)O)c1ccc(Cl)cc1 (centres unmarked) [UM0142401:01, Rebamipide]	2.079%	–
C=C[C@]1(C)C[C@@H](OC(=O)CS[C@@H]2C[C@H]3CC[C@@H](C2)N3C)[C@]2(C)[C@H](C)CC[C@]3(CCC(=O)[C@H]32)[C@@H](C)[C@@H]1O [UM0142402:01, Retapamulin]	4.258%	–
CCCN1CCCC[C@H]1C(=O)Nc1c(C)cccc1C [UM0142404:01, Ropivacaine HCl]	0.01917%	–
Cc1ccc(S(=O)(=O)Cc2nc(-c3ccc(C(=O)NCc4cccnc4)cc3)oc2C)cc1 [UM0142406:01, STF-118804]	1.65%	–
CN[C@@H]1[C@H](O[C@H]2[C@H](O[C@H]3[C@H](O)[C@@H](O)[C@H](N=C(N)N)[C@@H](O)[C@@H]3N=C(N)N)O[C@@H](C)[C@]2(O)C=O)O[C@@H](CO)[C@H](O)[C@H]1O [UM0142407:01, Streptomycin sulfate]	1.585%	–
CC1(C)[C@H](C(=O)O)N2C(=O)C[C@H]2S1(=O)=O [UM0142408:01, Sulbactam sodium]	1.508%	–
CCN=C1N[C@@H]2[C@@H](O)[C@H](O)[C@@H](CO)O[C@@H]2S1 [UM0142409:01, Thiamet G]	-0.5508%	–
CN(C)C(=O)COC(=O)Cc1ccc(OC(=O)c2ccc(NC(=N)N)cc2)cc1 [UM0142412:01, Camostat Mesilate]	0.7864%	–
C=C[C@H]1CN2CC[C@H]1C[C@H]2[C@H](O)c1ccnc2ccc(OC)cc12 [UM0142415:01, Quinine HCl Dihydrate]	1.874%	–
C=C1CC[C@H](O)C/C1=C/C=C1\CCC[C@]2(C)[C@@H]([C@H](C)CCCC(C)(C)O)CC[C@@H]12 [UM0142419:01, Calcifediol]	12.98%	–
CCC(CC)[C@H](NC(C)=O)[C@@H]1[C@H](O)[C@@H](C(=O)O)C[C@H]1NC(=N)N [UM0142420:01, Peramivir Trihydrate]	–	0.7131%
Cc1cccc(Nc2nc(-c3ccncc3)cs2)c1 [UM0142421:01, STF-62247]	25.96%	–
C=C1/C(=C\C=C2/CCC[C@]3(C)[C@@H]([C@H](C)CCCC(C)C)CC[C@@H]23)C[C@@H](O)C[C@@H]1O [UM0142422:01, Alfacalcidol]	10.76%	–
Cc1cc(OCc2nnc(SC3CCCC3)n2-c2cccnc2)ccc1-c1ccc(S(C)(=O)=O)cc1 [UM0142426:01, NMS-873]	10.54%	–
Nc1ncnc2c1c(-c1cnc3[nH]ccc3c1)nn2C1CCCC1 [UM0142428:01, PP121]	28.88%	–
COCCOc1ccc2c(c1)ncn2-c1ccc2cccc(N3CCC(N)CC3)c2n1 [UM0142429:01, CP-673451]	21.57%	–
CNc1nc(-c2ccc3c(N)n[nH]c3c2)cc(N2C[C@@H](C(=O)NC3CCCCC3)CC[C@H]2C)n1 [UM0142430:01, GSK2334470]	2.681%	–
Cc1cccc(CC(=O)N2CCc3c2ccc(-c2cn(C)c4ncnc(N)c24)c3F)n1 [UM0142431:01, GSK2656157]	-0.3115%	–
O=C1NC(=O)/C(=C/c2ccc3nccc(-c4ccncc4)c3c2)S1 [UM0142432:01, GSK1059615]	27.08%	–
Cc1c(CN2CCN(C(=O)[C@H](C)O)CC2)sc2c(N3CCOCC3)nc(-c3cnc(N)nc3)nc12 [UM0142435:01, GDC-0980 (RG7422)]	0.4199%	–
Cc1c(Cn2c(C)nc3c(C(=O)O)cc(N4CCOCC4)cc32)cccc1C(F)(F)F [UM0142436:01, GSK2636771]	-0.2162%	–
Cn1cc(C2=C(c3cn(CCCSC(=N)N)c4ccccc34)C(=O)NC2=O)c2ccccc21 [UM0142439:01, Ro 31-8220 Mesylate]	76.02%	–
COc1ccc2[nH]c([S@@+]([O-])Cc3ncc(C)c(OC)c3C)nc2c1 [UM0142444:01, Esomeprazole Magnesium]	–	3.498%
CCOC(=O)[C@H](CCc1ccccc1)N[C@H]1CS[C@H](c2cccs2)CN(CC(=O)O)C1=O [UM0142447:01, Temocapril HCl]	1.04%	–
COCCCOc1cc(C[C@@H](C[C@H](N)[C@@H](O)C[C@H](C(=O)NCC(C)(C)C(N)=O)C(C)C)C(C)C)ccc1OC [UM0142448:01, Aliskiren Hemifumarate]	6.646%	–
CCn1c2ccccc2c2cc(Nc3ccnc(NCCCN4CCOCC4)n3)ccc21 [UM0142449:01, EHop-016]	37.03%	–
COc1cccc2c1C(=O)c1c(O)c3c(c(O)c1C2=O)C[C@@](O)(C(=O)CO)C[C@@H]3O[C@H]1C[C@H](N)[C@H](O[C@@H]2CCCCO2)[C@H](C)O1 [UM0142479:01, Pirarubicin]	33.32%	–
